According to patent US8263601B2, “Deuterium substituted xanthine derivatives” (CoNCERT Pharmaceuticals, Inc., priority 2009, dated 2012):
Read-outs that look alike come from different tables or passages of the source.

Key:
[1] = Pharmacokinetic study of pentoxifylline and Compound 435(S) in chimps after oral dosing (Example 38); format: in vivo; conditions: for % Difference in AUC0-∞ Female (deuterated vs nondeuterated species) / % Difference in AUC0-∞ Male (deuterated vs nondeuterated species): oral; for AUC(0-inf): oral gavage 75 mg each of pentoxifylline and 435(S) as 1:1 mixture, species named in label measured in plasma
Protocol: Pentoxifylline and Compound 435(S) were separately dissolved in warm (65° C.) saline at a concentration at 10 mg/mL. A 1:1 mixture of the two compounds was then prepared containing a final concentration of 5 mg/mL of each compound and the mixture was then sterile filtered through a 0.2-μm filter.
Two chimps (one male and one female) were used in each of the oral and intravenous studies. Animals were fasted overnight prior to administration of compounds. All animals were sedated with ketamine (approximately 10 mg/kg) and/or telazol (approximately 5 mg/kg) prior to dosing. Intravenous administration was achieved by IV infusion of 75 mg of each compound (15 mL total dosing solution) over 10 minutes. Oral administration was achieved by oral gavage of a single 75 mg dose of each compound (15 mL total dosing solution). Blood samples (6 mL) were collected from the dosed chimps at various times prior to and after dosing. For intravenous administrations blood samples were collected at 0 min (preinfusion), 5 min, 9.5 min (immediately before the end of the infusion), then 6, 15, 30 and 45 min, and 1, 2, 4, 6, 8, 10 and 12 hr after the infusion is stopped. For oral administrations, blood samples were collected at 0 min (predose), 15 and 30 min, and 1, 1.5, 2, 4, 6, 8, 10 and 12 hr postdose.
Blood samples were placed in tubes containing sodium heparin, mixed and stored on ice until centrifuged. Within 30 minutes of collection, plasma was isolated by centrifuging the blood samples and removing an aliquot (200 μL) of the resulting plasma. Each 200-μL aliquot of plasma was mixed with 400 μL acetonitrile and stored at −70° C. until further analysis by LC-MS/MS using an Applied Bio-systems API 4000 mass spectrometer.
The analysis of all samples by LC-MS/MS was performed as described above for the rat plasma samples in Example 37.

[2] = Pharmacokinetic study in rats of (S)-M1 and Compound 435(S) after intravenous dosing (Example 37); format: in vivo, male Sprague-Dawley rats; conditions: for AUC(0-inf): male, Sprague-Dawley, rat
Protocol: (§1) (S)-M1 and Compound 435(S) (a deuterated form of (S)-M1) were separately dissolved in saline at a concentration of 10 mg/mL. A 1:1 mixture of the two compounds was then prepared containing a final concentration of 5 mg/mL of each compound, which was used for intravenous administration. For oral administration the mixture was further diluted in saline to a final concentration of 1 mg/mL for each compound.
(§2) Three male Sprague-Dawley rats were used in each of the oral and intravenous studies. Animals were fasted overnight prior to administration of compounds. Intravenous administration was achieved by bolus injection of a single 5 mg/kg dose of the 1:1 combination into the cannulated jugular vein of the rats. Cannulation was achieved the day prior to dosing on rats that had been placed under anesthesia using ketamine (IM 30 mg/kg). Oral administration was achieved by oral gavage of a single 5 mg/kg dose. Blood samples (250 μL) were collected from the dosed rats at various times post-dosing (2 min, 5 min, 10 min, 20 min, 30 min, 1 hr, 2 hr, 3 hr, 4 hr, 5 hr, 6 hr) by retro-orbital sampling of the rats temporarily anesthetized with isoflurane. Blood samples were placed in tubes containing K2-EDTA and stored on ice until centrifuged. Within 30 minutes of collection, plasma was isolated by centrifugation. A 100-μL aliquot was removed, mixed with 200 μL of acetonitrile and stored at −20° C. until further analysis by LC-MS/MS using an Applied Bio-systems API 4000 mass spectrometer.
(§3) Samples were analyzed for the presence of the administered compound, the corresponding ketone (pentoxifylline and Compound 409) and the corresponding M5 metabolite. Samples (10 μL) were injected into a Zorbax SB-C8 (Rapid Resolution) column (2.1×30 mm, 3.5 μm). The initial mobile phase condition was 100% A (10 mM ammonium acetate in water) and 0% B (methanol) with a flow rate at 0.5 mL/min. Mobile phase B was allowed to reach 55% in 3 minutes and from 55% to 90% in 1 minute before ramping back to 0% in another minute. The overall run time was 5 minutes. For pentoxifylline and its M1 and M5 metabolites, the precursor/product ion pairs were set at m/z 281/193 (M1), m/z 279/181 (pentoxifylline), and m/z 267/221 (M5).
(§4) For Compound 435(S) and Compound 409 more than one ion pair was set up for to detect species that arose from loss of deuterium. […] This loss of deuterium appears to occur both in vivo and ex vivo by an unknown mechanism. The addition of acetonitrile to serum samples was used to stop any additional ex vivo deuterium loss prior to analysis. Typically, no more than 2 deuterium atoms were replaced by hydrogen. For Compound 435(S), there is a deuterium at the methinyl position which was lost upon oxidation to the keto-compound 409. Reduction of 409 to an M1 metabolite introduced a proton at the methinyl position. When serum from animals dosed with 435(S) were analyzed to quantitate administered compound and metabolites, compound species were included with one and two less side chain deuteriums in the total amounts (referred to hereinafter as the “−1D” and the “−2D” species). Thus, for Compound 435(S) and Compound 409 separate ion pairs were set up to detect the compound and its corresponding −1D and −2D species. For Compound 435(S) three ion pairs were detected: m/z 291/197, 290/197, and […]. For Compound 409 ion pairs of m/z 288/186, 287/186 and 286/186 were monitored. Inclusion of −1D and −2D species in the measurements of Compound 409 and Compound 435(S) more accurately quantitates the total active species and is reasonable based on what is known about the metabolism and activities of pentoxifylline and its M-1 metabolites. Increased plasma exposure to Compound 409 or any M-1 metabolites of 409 would be desirable. This includes the −1D and −2D species.
(§5) [drawing 78] which has no deuterium on its acid side chain, only one ion pair was used at m/z 271/225. The internal standard for the analysis was indiplon.

[3] = Pharmacokinetic study of pentoxifylline and Compound 435(S) in chimps after oral dosing (Example 39); format: in vivo; conditions: for % Difference in AUC0-12 Female (deuterated vs nondeuterated species) / % Difference in AUC0-12 Male (deuterated vs nondeuterated species): oral
Protocol: Pentoxifylline and Compound 435(S) were tested according to a protocol similar to the Oral Dosing protocol followed in Example 38, except that (a) the compounds were separately dissolved in water rather than saline; (b) the mixture of the two compounds was not sterile filtered; and (c) oral administration was achieved by oral gavage of a single 65 mg dose of each compound (13 mL total dosing solution).

[4] = Pharmacokinetic study in rats of (S)-M1 and Compound 435(S) after oral dosing (Example 37); format: in vivo, male Sprague-Dawley rats
Protocol: as §1, §2, §3, §4, §5

[5] = intravenous bolus single 5 mg/kg dose of 1:1 combination of (S)-M1 and 435(S), species named in label measured in plasma
[6] = female chimp, read-out: AUC0-∞ Female
[7] = male chimp, read-out: AUC0-∞ Male
[8] = female chimp, oral gavage 65 mg each of pentoxifylline and 435(S) in water, species named in label measured in plasma, read-out: AUC0-12 Female
[9] = male chimp, oral gavage 65 mg each of pentoxifylline and 435(S) in water, species named in label measured in plasma, read-out: AUC0-12 Male
[10] = male, Sprague-Dawley, rat, oral gavage single 5 mg/kg dose, 1:1 mixture of (S)-M1 and 435(S), species named in label measured in plasma, −1D and −2D species included

SMILES: C[C@H](O)CCCCn1c(=O)c2c(ncn2C)n(C)c1=O [(S)-M1, reference compound]
- AUC0-∞ Female ([1]; in vivo, po, 75 mg): 301 ng·h/mL
- AUC0-∞ Male ([1]; in vivo, po, 75 mg): 300 ng·h/mL
- Ratio of active species to the corresponding M5 metabolite ([2]; intravenous administration): 3.5
- AUC0-∞ [2, 5]: 3390 ± 302 ng·h/mL
- AUC0-12 Female ([3]; female chimp, oral gavage 65 mg each of pentoxifylline and 435(S) in water, species named in label measured in plasma): 88 ng·h/mL
- AUC0-12 Male ([3]; male chimp, oral gavage 65 mg each of pentoxifylline and 435(S) in water, species named in label measured in plasma): 75 ng·h/mL
- Ratio of active species (M1 alcohol + ketone) to M5 metabolite ([4]; oral administration, from AUC0-∞): 1.6
- Cmax ([4]; oral gavage single 5 mg/kg dose, 1:1 mixture of (S)-M1 and 435(S), species named in label measured in plasma): 1570 ± 249 ng/mL
- AUC0-∞ ([4]; oral gavage single 5 mg/kg dose, 1:1 mixture of (S)-M1 and 435(S), species named in label measured in plasma, −1D and −2D species included): 1628 ± 272 ng·h/mL

SMILES: [2H]c1nc2c(c(=O)n(CCCC([2H])([2H])[C@@]([2H])(O)C([2H])([2H])[2H])c(=O)n2C)n1C([2H])([2H])[2H] [Compound 435(S), (S)-8-d1-1-(4,4,5,6,6,6-d6-5-Hydroxyhexyl)-3-methyl-7-(methyl-d3)-1H-purine-2,6(3H,7H)-dione]
- % Difference in AUC0-∞ Female (deuterated vs nondeuterated species) ([1]; female chimp): +123%
- AUC(0-inf) [1, 6]: 672 ng·h/mL
- % Difference in AUC0-∞ Male (deuterated vs nondeuterated species) ([1]; male chimp): +176%
- AUC(0-inf) [1, 7]: 829 ng·h/mL
- AUC(0-inf) [2, 5]: 7130 ± 816 ng·h/mL
- % Difference in AUC0-12 Female (deuterated vs nondeuterated species) ([3]; female chimp): +108%
- AUC(0-t) [3, 8]: 183 ng·h/mL
- % Difference in AUC0-12 Male (deuterated vs nondeuterated species) ([3]; male chimp): +185%
- AUC(0-t) [3, 9]: 214 ng·h/mL
- Cmax ([4]; male, Sprague-Dawley, rat, oral gavage single 5 mg/kg dose, 1:1 mixture of (S)-M1 and 435(S), species named in label measured in plasma, read-out: Cmax): 4100 ± 964 ng/mL
- AUC(0-inf) [4, 10]: 4510 ± 1020 ng·h/mL
- % Difference in AUC0-∞ (deuterated vs nondeuterated species) ([4]; oral): +177%
- % Difference in Cmax (deuterated vs nondeuterated species) ([4]; oral): +162%

SMILES: [2H]c1nc2c(c(=O)n(CCCC(=O)O)c(=O)n2C)n1C([2H])([2H])[2H] [Deuterated M5 (M5a)]
- % Difference in AUC0-∞ Female (deuterated vs nondeuterated species) ([1]; female chimp): −68%
- AUC(0-inf) [1, 6]: 606 ng·h/mL
- % Difference in AUC0-∞ Male (deuterated vs nondeuterated species) ([1]; male chimp): −68%
- AUC(0-inf) [1, 7]: 462 ng·h/mL
- % Difference in AUC0-∞ (deuterated vs nondeuterated species) ([2]; intravenous): −15%
- Amount of M5a metabolite less than amount of M5 metabolite ([2]; intravenous administration of Compound 435(S) vs (S)-M1): 15%
- AUC(0-inf) [2, 5]: 1520 ± 530 ng·h/mL
- % Difference in AUC0-12 Female (deuterated vs nondeuterated species) ([3]; female chimp): −25%
- AUC(0-t) [3, 8]: 609 ng·h/mL
- % Difference in AUC0-12 Male (deuterated vs nondeuterated species) ([3]; male chimp): −18%
- AUC(0-t) [3, 9]: 667 ng·h/mL
- AUC(0-inf) [4, 10]: 1920 ± 183 ng·h/mL
- % Difference in AUC0-∞ (deuterated vs nondeuterated species) ([4]; oral): −36%
